A value given as a limit tells only on which side of the number the result lay.

Our source for the inhibition and IC50 values is patent US5516784A, “Anti-HIV (AIDS) agents” (Schering Corporation, priority 1994, dated 1996).

One assay has as its target T1, HIV1 protease (Human immunodeficiency virus type 1 group M subtype B, UniProt P04585). The assay can be described thus: Test 3: inhibition of proteolytic activity of HIV-1 protease by scintillation proximity assay (SPA). The class given is biochemical. The following applies: IC50 >500 nM; read-out: Enzyme Assays (SPA) % inhibition. The source says: TEST 3-INHIBITION OF PROTEOLYTIC ACTIVITY OF HIV-1-PROTEASE AS DETERMINED BY SCINTILLATION […] ASSAY (SPA).
This is an alternative assay to test #1 and is used to determine the ability of compounds to inhibit the HIV1 protease activity. The SPA assay for HIV1 protease has been developed by Amersham Corporation, Arlington Heights, Ill., and is available for commercial use. In this system the substrate for HIV1 protease, AcN-(I^125)[…]SPA bead, is cleaved by the HIV1 protease at the Phe-Phe bond releasing the I^125 -labelled peptide fragment from the SPA bead. This event causes removal of detectable signal from the microsphere bead indicated by reduction in radioactivity (measured in CPM), which is proportional to the proteolytic activity. The substrate, and the HIV 1 protease were incubated in presence of synthetic compound in various dilutions at room temperature for 40 minutes, and the concentration of the compound required to inhibit the proteolytic activity by 50% (IC50) was determined.
For orientation: In a scintillation proximity assay essentially only radioactivity close to the scintillant gives light.
By inhibition is commonly meant the percentage by which the read-out fell short of the control. Consider `CCC(C)[C@H](NC(=O)c1ccc2ccccc2n1)C(=O)N[C@@H](Cc1ccccc1)[C@H](O)COc1ccccc1C(=O)NC(C)(C)C` (some centres unmarked) [Compound 38], for which the inhibition at 0.5 µM was found to be 46%. The same measure, in the same setting: next, `CC(C)(C)NC(=O)c1ccccc1OC[C@H](O)[C@H](Cc1ccccc1)NC(=O)[C@H](CC(N)=O)NC(=O)c1nc2ccccc2nc1O` [Compound 63]: 35%; `CC(C)(C)NC(=O)c1ccccc1OC[C@@H](O)[C@H](Cc1ccccc1)NC(=O)[C@H](CC(N)=O)NC(=O)c1nc2ccccc2nc1O` [Compound 64]: 36%; `CC(C)(C)NC(=O)c1ccccc1OC[C@@H](O)[C@H](Cc1ccccc1)NC(=O)[C@H](CC(N)=O)NC(=O)c1cnc2nc(N)nc(O)c2n1` [Compound 68]: 36%.

Still in this assay, the particulars now being: SPA; room temperature, 40 minutes; read-out: Enzyme Assays (SPA) IC50.
The term IC50 denotes the concentration that gives 50% inhibition. Turning to `NC(=O)C[C@H](NC(=O)c1ccc2ccccc2n1)C(=O)N[C@@H](Cc1ccccc1)[C@H](O)CSC1CCCC1C(=O)Nc1ccccc1` (single isomer, unassigned) [Compound 15], the concentration for half-maximal inhibition (IC50) is over 200 nM. With `NC(=O)C[C@H](NC(=O)c1ccc2ccccc2n1)C(=O)N[C@@H](Cc1ccccc1)[C@H](O)CSC1CCCC1C(=O)Nc1ccccc1` (single isomer, unassigned) [Compound 17], the IC50 worked out at 200 nM. Still for that read-out and setting: next, `CC(C)(C)NC(=O)c1cccnc1OC[C@H](O)[C@H](Cc1ccccc1)NC(=O)[C@H](CC(N)=O)NC(=O)c1ccc2ccccc2n1` [Compound 6]: over 500 nM; `CC(C)(C)NC(=O)c1c(OC[C@@H](O)[C@H](Cc2ccccc2)NC(=O)[C@H](CC(N)=O)NC(=O)c2ccc3ccccc3n2)ccc2ccccc12` [Compound 10]: 110 nM. Same read-out and setting: the same measure for `CC(C)(C)NC(=O)c1cc2ccccc2cc1OC[C@@H](O)[C@H](Cc1ccccc1)NC(=O)[C@H](CC(N)=O)NC(=O)c1ccc2ccccc2n1` [Compound 11]: 280 nM. On the same count and under the same terms, the same measure for `CC(C)(C)NC(=O)c1ccc2ccccc2c1OC[C@@H](O)[C@H](Cc1ccccc1)NC(=O)[C@H](CC(N)=O)NC(=O)c1ccc2ccccc2n1` [Compound 12]: 230 nM; for `NC(=O)C[C@H](NC(=O)c1ccc2ccccc2n1)C(=O)N[C@@H](Cc1ccccc1)[C@@H](O)CSC1CCCC1C(=O)Nc1ccccc1` (some centres unmarked) [Compound 14]: over 200 nM. As for `NC(=O)C[C@H](NC(=O)c1ccc2ccccc2n1)C(=O)N[C@@H](Cc1ccccc1)[C@H](O)CSC1CCCC1C(=O)Nc1ccccc1` (some centres unmarked) [Compound 21], the concentration for half-maximal inhibition (IC50) was over 200 nM. Still for that read-out and setting: next, `NC(=O)C[C@H](NC(=O)c1ccc2ccccc2n1)C(=O)N[C@@H](Cc1ccccc1)[C@@H](O)CSc1nc2ccccc2[nH]1` [Compound 22]: over 200 nM; `CC(C)(C)NC(=O)c1ccc(SC[C@H](O)[C@H](Cc2ccccc2)NC(=O)[C@H](CC(N)=O)NC(=O)c2ccc3ccccc3n2)cc1` [Compound 23]: over 200 nM. On the same count and under the same terms, next, `CC(C)(C)NC(=O)c1ccc(SC[C@@H](O)[C@H](Cc2ccccc2)NC(=O)[C@H](CC(N)=O)NC(=O)c2ccc3ccccc3n2)cc1` [Compound 24]: over 200 nM; `CC(C)(C)NC(=O)c1cccc(SC[C@H](O)[C@H](Cc2ccccc2)NC(=O)[C@H](CC(N)=O)NC(=O)c2ccc3ccccc3n2)c1` [Compound 25]: over 200 nM; `CC(C)(C)NC(=O)c1cccc(SC[C@@H](O)[C@H](Cc2ccccc2)NC(=O)[C@H](CC(N)=O)NC(=O)c2ccc3ccccc3n2)c1` [Compound 26]: over 200 nM. On to `CC(C)(C)NC(=O)CCSC[C@@H](O)[C@H](Cc1ccccc1)NC(=O)[C@H](CC(N)=O)NC(=O)c1ccc2ccccc2n1` [Compound 28], for which the IC50 is over 200 nM. For the molecule `NC(=O)C[C@H](NC(=O)c1ccc2ccccc2n1)C(=O)N[C@@H](Cc1ccccc1)[C@@H](O)CSc1ccccc1C(=O)NC12CC3CC(CC(C3)C1)C2` [Compound 29], the concentration for half-maximal inhibition (IC50) was over 200 nM. Regarding `CC(C)(C)NC(=O)c1ccccc1SC[C@@H](O)[C@H](Cc1ccccc1)NC(=O)[C@H](Cc1ccccc1)NC(=O)c1ccc2ccccc2n1` [Compound 34], the half-inhibitory concentration (IC50) is over 200 nM.

Take `CCC(C)[C@H](NC(=O)c1ccc2ccccc2n1)C(=O)N[C@@H](Cc1ccccc1)[C@H](O)CSc1ccccc1C(=O)NC(C)(C)C` (some centres unmarked) [Compound 36]: the IC50 stood at 132 nM. The same measure, in the same setting: next, `CCC(C)[C@H](NC(=O)c1ccc2ccccc2n1)C(=O)N[C@@H](Cc1ccccc1)[C@H](O)COc1ccccc1C(=O)NC(C)(C)C` (some centres unmarked) [Compound 38]: over 500 nM. The same measure, in the same setting: the same measure for `CCC(C)C(NC(=O)c1ccc2ccccc2n1)C(=O)N[C@@H](Cc1ccccc1)[C@H](O)CSc1ccccc1C(=O)NC(C)(C)C` (some centres unmarked) [Compound 39]: over 200 nM. Regarding `CN(C)C(=O)C[C@H](NC(=O)c1ccc2ccccc2n1)C(=O)N[C@@H](Cc1ccccc1)[C@H](O)CSc1ccccc1C(=O)NC(C)(C)C` [Compound 42], the 50% inhibitory concentration (IC50) was over 200 nM. On the same count and under the same terms, the same measure for `CC(C)(C)NC(=O)c1ccccc1OC[C@@H](O)[C@H](Cc1ccccc1)NC(=O)[C@H](CC(N)=O)NC(=O)c1cnc2ccccc2n1` [Compound 60]: 48 nM; for `CC(C)(C)NC(=O)c1ccccc1OC[C@H](O)[C@H](Cc1ccccc1)NC(=O)[C@H](CC(N)=O)NC(=O)c1cc(O)c2ccccc2n1` [Compound 61]: 410 nM; for `CC(C)(C)NC(=O)c1ccccc1OC[C@H](O)[C@H](Cc1ccccc1)NC(=O)[C@H](CC(N)=O)NC(=O)c1nc2ccccc2nc1O` [Compound 63]: over 500 nM.

As to `CC(C)(C)NC(=O)c1ccccc1OC[C@@H](O)[C@H](Cc1ccccc1)NC(=O)[C@H](CC(N)=O)NC(=O)c1nc2ccccc2nc1O` [Compound 64], the half-maximal inhibitory concentration (IC50) is over 500 nM. Same read-out and setting: the same measure for `CC(C)(C)NC(=O)c1ccccc1OC[C@H](O)[C@H](Cc1ccccc1)NC(=O)[C@H](CC(N)=O)NC(=O)c1cnnc2ccccc12` [Compound 65]: 500 nM; for `CC(C)(C)NC(=O)c1ccccc1OC[C@@H](O)[C@H](Cc1ccccc1)NC(=O)[C@H](CC(N)=O)NC(=O)c1cnnc2ccccc12` [Compound 66]: 124 nM; for `CC(C)(C)NC(=O)c1ccccc1OC[C@@H](O)[C@H](Cc1ccccc1)NC(=O)[C@H](CC(N)=O)NC(=O)c1cnc2nc(N)nc(O)c2n1` [Compound 68]: over 500 nM. The same measure, in the same setting: the same measure for `Cc1c(C)c2c(c(C)c1O)CCC(C)(C(=O)N[C@@H](CC(N)=O)C(=O)N[C@@H](Cc1ccccc1)[C@@H](O)COc1ccccc1C(=O)NC(C)(C)C)O2` (some centres unmarked) [Compound 71]: 245 nM; for `CC(C)(C)NC(=O)c1ccccc1OC[C@@H](O)[C@H](CCc1ccccc1)NC(=O)[C@H](CC(N)=O)NC(=O)c1ccc2ccccc2n1` [Compound 76]: over 500 nM; for `CCC(C)[C@H](NC(=O)OC(C)(C)C)C(=O)N[C@@H](Cc1ccccc1)[C@H](O)CSc1ccccc1C(=O)NC(C)(C)C` (some centres unmarked) [IN 7]: over 500 nM. For `CC(C)(C)NC(=O)c1ccccc1OC[C@@H](O)[C@H](Cc1ccccc1)NC(=O)[C@H](CC(N)=O)NC(=O)OCc1ccccc1` [IN 8], the IC50 turned out to be 125 nM.

Staying with this assay, now noted: read-out: Enzyme Assays (SPA) IC50.
`CC(C)(C)NC(=O)c1ccccc1OC[C@H](O)[C@H](Cc1ccccc1)NC(=O)[C@H](CC(N)=O)NC(=O)c1ccc2c(c1)C(=O)c1ccccc1C2=O` [Compound 69]: the half-inhibitory concentration (IC50) came out at 84 nM. On the same count and under the same terms, the same measure for `CC(C)(C)NC(=O)c1ccccc1OC[C@@H](O)[C@H](Cc1ccccc1)NC(=O)[C@H](CC(N)=O)NC(=O)c1ccc2c(c1)C(=O)c1ccccc1C2=O` [Compound 70]: 55 nM; for `CC(C)(C)NC(=O)c1ccccc1OC[C@H](O)[C@H](Cc1ccccc1)NC(=O)[C@H](CC(N)=O)NS(=O)(=O)c1ccc2ccccc2c1` [Compound 73]: 425 nM.

A further assay deals with T1, HIV1 protease. The assay can be described thus: Test 1: inhibition of proteolytic activity of HIV-1 protease (HPLC). Type of assay: biochemical. To be noted: HPLC; HIV Substrate III; read-out: Enzyme Assays (HPLC) IC50. On the set-up: proteolytic activity of HIV-1 protease. Here is the method:
TEST I-INHIBITION OF PROTEOLYTIC ACTIVITY OF HIV-1-PROTEASE
The ability of compounds of the invention to inhibit the proteolytic activity of HIV-1 protease was determined by using the method of Louis, et al., Biochem. Biophys. Res. Comm. 159:87-94, (1989), which is herein incorporated by reference. In using the method of Louis et al., HIV Substrate III, His-Lys-Ala-Arg-VaI-Leu-pNO2 Phe-Glu-Ala-Nle-Ser-NH2 purchased from Bachem Bioscience, Inc. Philadelphia, Pa. was used in place of the nonapeptide substrate […]amide.
Regarding `NC(=O)C[C@H](NC(=O)c1ccc2ccccc2n1)C(=O)N[C@@H](Cc1ccccc1)[C@@H](O)CSc1ncccn1` [Compound 1], the IC50 was over 50 nM. For the molecule `CCCCNC(=O)c1ccccc1S(=O)(=O)C[C@H](O)[C@H](Cc1ccccc1)NC(=O)[C@H](CC(N)=O)NC(=O)c1ccc2ccccc2n1` [Compound 9], the IC50 is over 500 nM.

As to `NC(=O)C[C@H](NC(=O)c1ccc2ccccc2n1)C(=O)N[C@@H](Cc1ccccc1)[C@@H](O)CSC1CCCC1C(=O)Nc1ccccc1` (some centres unmarked) [Compound 16], the 50% inhibitory concentration (IC50) is over 500 nM. `NC(=O)C[C@H](NC(=O)c1ccc2ccccc2n1)C(=O)N[C@@H](Cc1ccccc1)[C@@H](O)CSC1CCCC1C(=O)Nc1ccccc1` (some centres unmarked) [Compound 18]: the IC50 was over 500 nM.

In the case of `CC(C)(C)NC(=O)CCSC[C@H](O)[C@H](Cc1ccccc1)NC(=O)[C@H](CC(N)=O)NC(=O)c1ccc2ccccc2n1` [Compound 27], the 50% inhibitory concentration (IC50) was over 500 nM. Same read-out and setting: the same measure for `NC(=O)C[C@H](NC(=O)c1ccc2ccccc2n1)C(=O)N[C@@H](Cc1ccccc1)[C@H](O)CSc1ccccc1C(=O)NC12CC3CC(CC(C3)C1)C2` [Compound 30]: over 50 nM; for `CC(C)(C)NC(=O)c1ccccc1SC[C@H](O)[C@H](Cc1ccccc1)NC(=O)[C@@H]1CCCN1C(=O)c1ccc2ccccc2n1` [Compound 32]: over 50 nM; for `CC(C)(C)NC(=O)c1ccccc1SC[C@H](O)[C@H](Cc1ccccc1)NC(=O)[C@H](Cc1ccccc1)NC(=O)c1ccc2ccccc2n1` [Compound 33]: over 500 nM.

The same assay, now with this note: intermediate compound; read-out: IC50 in Test 1, Inhibition of Proteolytic Activity of HIV-1-Protease.
Take `CC(C)(C)NC(=O)c1ccccc1SCC(O)C(Cc1ccccc1)NC(=O)OC(C)(C)C` (centres unmarked): the IC50 was 3000 nM.
